Measurements reported in ChEMBL document CHEMBL1201862, “PubChem BioAssay data set” (2004).
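1) Cells in 96-well plates. 2) Compound, 48 h, 5 concentrations. 3) Linear interpolation between surrounding doses. 4) Unreached endpoint = highest concentration. GI50 is the concentration that inhibits growth by half.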 Active and inactive are the calls of the source. Rule as the data show it: active = GI50 up to about 1.1 µM and inactive = higher.

Experiments:
Assay in all cases: DTP human tumour cell line panel, 48 h
[1] = test system: SNB-19
[2] = test system: EKVX
[3] = test system: SK-MEL-5
[4] = test system: M14
[5] = test system: OVCAR-4
[6] = test system: SF-539
[7] = test system: CCRF-CEM
[8] = test system: DLD-1
[9] = test system: SF-295
[10] = test system: SK-MEL-28
[11] = test system: COLO 205
[12] = test system: SK-MEL-2
[13] = test system: NCI-H460
[14] = test system: SK-OV-3
[15] = test system: HOP-62
[16] = test system: SNB-78
[17] = test system: 786-0
[18] = test system: HOP-92
[19] = test system: DMS-114
[20] = test system: IGROV-1
[21] = test system: RXF 393
[22] = test system: HCT-15
[23] = test system: HCT-116
[24] = test system: OVCAR-8
[25] = test system: CAKI-1
[26] = test system: OVCAR-3
[27] = test system: OVCAR-5
[28] = test system: A498
[29] = test system: HCC 2998
[30] = test system: UACC-62
[31] = test system: HL-60
[32] = test system: U-251
[33] = test system: LOX IMVI
[34] = test system: SN12C
[35] = test system: HT-29
[36] = test system: MOLT-4
[37] = test system: TK-10
[38] = test system: M19-MEL
[39] = test system: XF498
[40] = test system: NCI-H522
[41] = test system: KM12
[42] = test system: RXF 631
[43] = test system: SW-620
[44] = test system: RPMI-8226
[45] = test system: SF-268
[46] = test system: Malme-3M
[47] = test system: A549
[48] = test system: ACHN
[49] = test system: KM-20L2
[50] = test system: K562
[51] = test system: DMS-273
[52] = test system: UACC-257
[53] = test system: LXFL 529
[54] = test system: UO-31
[55] = test system: SNB-75
[56] = test system: NCI-H226
[57] = test system: NCI-H23
[58] = test system: HOP-18
[59] = test system: SR

Measured: GI50

S=C(Nc1ccccc1)Nc1ccccc1SC(/C=C/NNC1=NN=C(c2ccccc2)C(c2ccccc2)N1)c1ccccc1 (stereo not given)
inactive: [1] > 100 µM | [2] > 100 µM | [3] 44.6 µM | [4] > 100 µM | [5] 5.68 µM | [6] 83.9 µM | [7] 28.5 µM | [8] 79.8 µM | [9] 69.3 µM | [10] > 100 µM | [11] > 100 µM | [12] > 100 µM | [13] > 100 µM | [14] > 100 µM | [15] 16.7 µM | [16] > 100 µM | [17] 81.5 µM | [18] 3.97 µM | [19] 12.2 µM | [20] > 100 µM | [21] 8.02 µM | [23] > 100 µM | [24] > 100 µM | [25] > 100 µM | [26] > 100 µM | [27] > 100 µM | [28] > 100 µM | [29] 26.4 µM | [30] > 100 µM | [31] 10.4 µM | [32] > 100 µM | [33] > 100 µM | [34] > 100 µM | [35] > 100 µM | [36] 13.4 µM | [37] > 100 µM | [38] > 100 µM | [39] > 100 µM | [40] 8.85 µM | [41] > 100 µM | [42] > 100 µM | [43] > 100 µM | [44] 59 µM | [45] > 100 µM | [46] > 100 µM | [47] > 100 µM | [48] 69.7 µM | [49] > 100 µM | [50] 64.9 µM | [51] > 100 µM
> 100 µM: [22]

O=c1c2ccccc2sc2nc(O)nn12
> 100 µM: [22]
inactive: [52] > 100 µM | [1] > 100 µM | [2] > 100 µM | [3] > 100 µM | [4] > 100 µM | [5] > 100 µM | [6] > 100 µM | [53] > 100 µM | [7] > 100 µM | [8] > 100 µM | [9] > 100 µM | [10] > 100 µM | [11] > 100 µM | [54] > 100 µM | [55] > 100 µM | [12] > 100 µM | [13] > 100 µM | [14] > 100 µM | [15] > 100 µM | [16] > 100 µM | [17] > 100 µM | [18] > 100 µM | [20] > 100 µM | [21] > 100 µM | [23] > 100 µM | [24] > 100 µM | [25] > 100 µM | [26] > 100 µM | [27] > 100 µM | [29] > 100 µM | [30] > 100 µM | [56] > 100 µM | [31] > 100 µM | [32] > 100 µM | [33] > 100 µM | [34] > 100 µM | [35] > 100 µM | [36] > 100 µM | [37] > 100 µM | [38] > 100 µM | [39] > 100 µM | [41] > 100 µM | [57] > 100 µM | [42] > 100 µM | [43] > 100 µM | [44] > 100 µM | [45] > 100 µM | [46] > 100 µM | [47] > 100 µM | [48] > 100 µM | [58] > 100 µM | [49] > 100 µM | [59] > 100 µM | [50] > 100 µM | [51] > 100 µM

COc1nc2[nH]ccc2c(=O)n1C
inactive: [52] > 100 µM | [1] > 100 µM | [2] > 100 µM | [3] > 100 µM | [4] > 100 µM | [5] 20.5 µM | [6] > 100 µM | [53] > 100 µM | [7] > 100 µM | [8] > 100 µM | [9] > 100 µM | [10] > 100 µM | [11] > 100 µM | [55] > 100 µM | [12] > 100 µM | [13] > 100 µM | [16] > 100 µM | [18] > 100 µM | [19] > 100 µM | [20] > 100 µM | [21] > 100 µM | [23] > 100 µM | [24] > 100 µM | [25] 24.3 µM | [27] > 100 µM | [28] > 100 µM | [31] > 100 µM | [32] > 100 µM | [33] > 100 µM | [34] > 100 µM | [35] > 100 µM | [36] > 100 µM | [37] > 100 µM | [39] > 100 µM | [41] > 100 µM | [57] > 100 µM | [42] > 100 µM | [43] > 100 µM | [44] > 100 µM | [45] > 100 µM | [46] > 100 µM | [47] > 100 µM | [48] > 100 µM | [58] > 100 µM | [59] > 100 µM | [50] > 100 µM | [51] > 100 µM
> 100 µM: [22]
